Data as given in patent US6355799B1, “Substituted benzene compounds, process for their preparation, and herbicidal and defoliant compositions containing them” (ISK Americas Incorporated, priority 1997, dated 2002).

Assays:
Format in all cases: in vivo
[1] = test system: ivyleaf morningglory (Ipomoea hederacea, IPOHE); assay: Post-emerge test, greenhouse herbicide activity screening; details: post-emerge, 14 days after application, rating scale 0-100
How it was run: (§1)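 Herbicidal damage is scored 0 (none) to 100 (complete plant death) two weeks after a simulated field spray. Rates span 15–1000 g ai/ha, delivered in acetone at 187 l/ha. For post-emergence treatments, plants have 2–3 leaves and the spray carries 0.25% v/v non-ionic surfactant.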

[2] = test system: redroot pigweed (Amaranthus retroflexus, AMARE); assay: as above; details: post-emerge, 14 days after application, rating scale 0-100
How it was run: as §1

[3] = test system: velvetleaf (Abutilon theophrasti, ABUTH); assay: as above; details: post-emerge, 14 days after application, rating scale 0-100
How it was run: as §1

[4] = test system: green foxtail (Setaria viridis, SETVI); assay: as above; details: post-emerge, 14 days after application, rating scale 0-100
How it was run: as §1

[5] = test system: johnsongrass (Sorghum halepense, SORHA); assay: as above; details: post-emerge, 14 days after application, rating scale 0-100
How it was run: as §1

[6] = test system: sicklepod (Cassia obtusifolia, CASOB); assay: as above; details: post-emerge, 14 days after application, rating scale 0-100
How it was run: as §1

[7] = test system: barnyardgrass (Echinochloa crus-galli, ECHCG); assay: as above; details: post-emerge, 14 days after application, rating scale 0-100
How it was run: as §1

[8] = test system: large crabgrass (Digitaria sanguinalis, DIGSA); assay: as above; details: post-emerge, 14 days after application, rating scale 0-100
How it was run: as §1

[9] = test system: upland rice (Oryza sp., var. Tebonnet, RICE); assay: Post-emerge test, crop safety; details: post-emerge, 14 days after application, rating scale 0-100
How it was run: (§2)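 Applied at 15–1000 g ai/ha from acetone in 187 l/ha spray volume. Post-emergence applications included 0.25% v/v non-ionic surfactant and reached plants sown 8–21 days before. Pre-emergence applications were incorporated by surface watering. Efficacy or crop damage was rated on a 0–100 scale after 14 days.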

[10] = test system: field corn (Zea mays L., var. Dekalb 535, CORN); assay: Post-emerge test, crop safety; details: post-emerge, 14 days after application, rating scale 0-100
How it was run: as §2

[11] = test system: redroot pigweed (Amaranthus retroflexus, AMARE); assay: Pre-emerge test, greenhouse herbicide activity screening; details: rated 14 days after application, 0 = no damage, 100 = complete death
How it was run: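 Compounds in acetone were track-sprayed at 15-1000 g ai/ha (187 l/ha) on sandy loam pots: pre-emerge one day after seeding, post-emerge at 2-3 leaf stage with 0.25% v/v non-ionic surfactant. Phytotoxicity was rated 14 days later on a 0 (no damage) to 100 (complete death) scale.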

[12] = test system: upland rice (Oryza sp., var. Tebonnet, RICE); assay: Pre-emerge test, crop safety; details: rated 14 days after application, 0 = no damage, 100 = complete death
How it was run: (§3)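 Sandy loam pots; pre-emerge: sown 1 d pre-spray, surface-watered after, then bottom-watered. Post-emerge: sown 8–21 d before, 2–3 leaf stage, + 0.25% v/v NIS, bottom-watered. Acetone, 187 l/ha track spray, 15–1000 g ai/ha. 0–100 injury score, day 14.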

[13] = test system: field corn (Zea mays L., var. Dekalb 535, CORN); assay: Pre-emerge test, crop safety; details: rated 14 days after application, 0 = no damage, 100 = complete death
How it was run: as §3

[14] = test system: ivyleaf morningglory (Ipomoea hederacea, IPOHE); assay: Pre-emerge test, greenhouse herbicide activity screening; details: rated 14 days after application, 0 = no damage, 100 = complete death
How it was run: as §2

[15] = test system: velvetleaf (Abutilon theophrasti, ABUTH); assay: as above; details: rated 14 days after application, 0 = no damage, 100 = complete death
How it was run: as §2

[16] = test system: green foxtail (Setaria viridis, SETVI); assay: as above; details: rated 14 days after application, 0 = no damage, 100 = complete death
How it was run: as §2

[17] = test system: johnsongrass (Sorghum halepense, SORHA); assay: as above; details: rated 14 days after application, 0 = no damage, 100 = complete death
How it was run: as §2

[18] = test system: lambsquarters (Chenopodium album, CHEAL); assay: as above; details: rated 14 days after application, 0 = no damage, 100 = complete death
How it was run: as §2

[19] = test system: sicklepod (Cassia obtusifolia, CASOB); assay: as above; details: rated 14 days after application, 0 = no damage, 100 = complete death
How it was run: as §2

[20] = test system: barnyardgrass (Echinochloa crus-galli, ECHCG); assay: as above; details: rated 14 days after application, 0 = no damage, 100 = complete death
How it was run: as §2

[21] = test system: large crabgrass (Digitaria sanguinalis, DIGSA); assay: as above; details: rated 14 days after application, 0 = no damage, 100 = complete death
How it was run: as §2

## CCOC(=O)C(=O)Nc1c(OC)c(Cl)cc(F)c1-n1c(=O)cc(C(F)(F)F)n(C)c1=O [2-118]
[1]; 63 g ai/ha
  phytotoxicity rating IPOHE: 50
[1]; 250 g ai/ha
  phytotoxicity rating IPOHE: 90
[2]; 63 g ai/ha
  phytotoxicity rating AMARE: 30
[2]; 250 g ai/ha
  phytotoxicity rating AMARE: 30
[3]; 63 g ai/ha
  phytotoxicity rating ABUTH: 60
[3]; 250 g ai/ha
  phytotoxicity rating ABUTH: 80
[4]; 63 g ai/ha
  phytotoxicity rating SETVI: 0
[4]; 250 g ai/ha
  phytotoxicity rating SETVI: 0
[5]; 63 g ai/ha
  phytotoxicity rating SORHA: 0
[5]; 250 g ai/ha
  phytotoxicity rating SORHA: 0
[6]; 63 g ai/ha
  phytotoxicity rating CASOB: 0
[6]; 250 g ai/ha
  phytotoxicity rating CASOB: 30
[7]; 63 g ai/ha
  phytotoxicity rating ECHCG: 0
[7]; 250 g ai/ha
  phytotoxicity rating ECHCG: 0
[8]; 63 g ai/ha
  phytotoxicity rating DIGSA: 0
[8]; 250 g ai/ha
  phytotoxicity rating DIGSA: 0
[9]; 63 g ai/ha
  phytotoxicity rating RICE: 10
[9]; 250 g ai/ha
  phytotoxicity rating RICE: 10
[10]; 63 g ai/ha
  phytotoxicity rating CORN: 10
[10]; 250 g ai/ha
  phytotoxicity rating CORN: 20
[11]; 63 g ai/ha
  Pre-emerge Herbicidal Activity, phytotoxicity rating (0-100), AMARE: 40
[11]; 250 g ai/ha
  Pre-emerge Herbicidal Activity, phytotoxicity rating (0-100), AMARE: 100
[12]; 63 g ai/ha
  Pre-emerge phytotoxicity rating (0-100), crop damage, RICE: 0
[12]; 250 g ai/ha
  Pre-emerge phytotoxicity rating (0-100), crop damage, RICE: 30
[13]; 63 g ai/ha
  Pre-emerge phytotoxicity rating (0-100), crop damage, CORN: 0
[13]; 250 g ai/ha
  Pre-emerge phytotoxicity rating (0-100), crop damage, CORN: 10
[14]; 63 g ai/ha
  Pre-emerge Herbicidal Activity, phytotoxicity rating (0-100), IPOHE: 10
[14]; 250 g ai/ha
  Pre-emerge Herbicidal Activity, phytotoxicity rating (0-100), IPOHE: 80
[15]; 63 g ai/ha
  Pre-emerge Herbicidal Activity, phytotoxicity rating (0-100), ABUTH: 90
[15]; 250 g ai/ha
  Pre-emerge Herbicidal Activity, phytotoxicity rating (0-100), ABUTH: 100
[16]; 63 g ai/ha
  Pre-emerge Herbicidal Activity, phytotoxicity rating (0-100), SETVI: 0
[16]; 250 g ai/ha
  Pre-emerge Herbicidal Activity, phytotoxicity rating (0-100), SETVI: 50
[17]; 63 g ai/ha
  Pre-emerge Herbicidal Activity, phytotoxicity rating (0-100), SORHA: 0
[17]; 250 g ai/ha
  Pre-emerge Herbicidal Activity, phytotoxicity rating (0-100), SORHA: 0
[18]; 63 g ai/ha
  Pre-emerge Herbicidal Activity, phytotoxicity rating (0-100), CHEAL: 90
[18]; 250 g ai/ha
  Pre-emerge Herbicidal Activity, phytotoxicity rating (0-100), CHEAL: 100
[19]; 63 g ai/ha
  Pre-emerge Herbicidal Activity, phytotoxicity rating (0-100), CASOB: 90
[19]; 250 g ai/ha
  Pre-emerge Herbicidal Activity, phytotoxicity rating (0-100), CASOB: 40
[20]; 63 g ai/ha
  Pre-emerge Herbicidal Activity, phytotoxicity rating (0-100), ECHCG: 0
[20]; 250 g ai/ha
  Pre-emerge Herbicidal Activity, phytotoxicity rating (0-100), ECHCG: 0
[21]; 63 g ai/ha
  Pre-emerge Herbicidal Activity, phytotoxicity rating (0-100), DIGSA: 0
[21]; 250 g ai/ha
  Pre-emerge Herbicidal Activity, phytotoxicity rating (0-100), DIGSA: 20
